{"source": "patent US9254334B2", "about": "“Polyamine derivatives” (CLSN Laboratories, Inc., priority 2009, dated 2016)", "key": {"[1]": {"system": "VEGF protein", "experiment": "In vitro transfection of simVEGF siRNA complexes, supernatant mVEGF protein knockdown", "assay_type": "cell-based, murine", "conditions": "SCCVII cells, 0.5 μg complexed simVEGF siRNA, 6 h + 40 h", "procedure": "(§1) The transfection activity of siRNA and dioleoyl monoamine delivery reagent conjugate complexes is determined in vitro. Transfection complexes containing simVEGF siRNA construct are prepared by methods previously described in Example 9. SCCVII cells (0.5×10^5 cells/well) are seeded into 24-well tissue culture plates in 10% FBS. Each well is incubated for 6 hours with 0.5 μg of complexed siRNA in a total volume of 250 μL of DMEM. When the incubation period is concluded, 250 μL of DMEM supplemented with 20% FBS is added to the transfected cells and incubated further for another 40 hours. At the end of the incubation period, supernatant mVEGF protein determinations are made.\nas §1, with “siRNA complexes with” for “siRNA and”, “monoamine (Example 3) or methyl-dioleoyl monoamine (Example 3A)” for “monoamine”, “delivery reagents” for “delivery reagent conjugate complexes”, “previously described.” for “previously described in Example 9.”, “are made as described above.” for “are made.”"}, "[2]": {"system": "Caveolin-1 (Cav-1) transcript", "experiment": "Caveolin-1 transcript knockdown in lung and liver after single iv injection of formulated siRNA (qRTPCR)", "assay_type": "in vivo, mice", "conditions": "100 μg siRNA iv, 10:1 ratio, 48 h, normalized to β-actin, vs non-targeting siRNA control", "procedure": "A total of 100 μg siRNA is injected in a final volume of 200 μL (0.5 mg/mL). […] Results (FIG. 3) indicate a significant decrease in target specific Cav-1 transcript levels in both lungs (76% knockdown) and livers (62% knockdown). For each group, n=5."}, "[3]": {"system": "VEGF transcript", "experiment": "VEGF transcript knockdown in subcutaneous tumors after intratumoral injection of formulated siVEGF", "assay_type": "in vivo, mice", "conditions": "VEGF siRNA 5:1 N:P, 0.3 mg/mL, 30 μl intratumoral, 48 h after second injection", "procedure": "(§2) In this example tumors were implanted into the hind flanks of […] by injecting 5×10^5 squamous cell carcinoma cells. Tumors were allowed to grow until they reached a size of […]. Tumors were then injected with a commercially available siRNA targeting VEGF that was formulated with dioleoyl monoamine at a 5:1 N:P ratio or with a similarly formulated non-silencing control siRNA. The final concentration of siRNA was 0.3 mg/mL. A total of 30 μl of the formulated siRNA solution was injected into tumors and injections were repeated every 3-4 days for a total of 6 injections. The tumors from some animals were harvested 48 hours after the second formulated siRNA injection for transcript analysis."}, "[4]": {"system": "squamous cell carcinoma tumors", "experiment": "Tumor growth inhibition and survival after intratumoral formulated VEGF siRNA", "assay_type": "in vivo, mice", "procedure": "as §2"}, "[5]": {"experiment": "Controlled release of complexed Cav-1 siRNA from crosslinked alginate gel", "assay_type": "physicochemical", "procedure": "siRNA complexed with dioleoyl monoamine is formulated as described in Example 39 containing 50 μg Cav-1 siRNA and 1.4 μg dioleoyl monoamine in a volume of 50 μL. Sodium alginate (Type A) is dissolved in water to give a 2% solution. An alginate solution (100 μL) is added to a single well of a 96-well plate followed by 50 μL of the dioleoyl monoamine/Cav-siRNA solution. After thorough mixing, 50 μL of a 0.68 M CaCl2 solution is added to the previous mixture to crosslink the gel. One hundred μL of water or 0.1 M EDTA (which serves to break down the gel by complexing the Ca^2+ ions) is then added to ensure complete submersion of the gel in aqueous solution. At the prescribed time points, the supernatants are removed (200 μL) and replaced with fresh 200 μL water or 0.1 M EDTA. After 84 hours, all collected samples are assayed for Cav-1 siRNA content using qRT-PCR. The siRNA amounts collected at each time point are summed in order to determine amount released over time. In samples that have the addition of EDTA, 100% of the loaded dioleoyl monoamine formulated siRNA is released after 84 hours."}, "[6]": {"conditions": "one week after last of 6 intratumoral injections"}}}
{"smiles": "CCCCCCCC/C=C\\CCCCCCCC(=O)NCCN(CCN)CCNC(=O)CCCCCCC/C=C\\CCCCCCCC", "note": "[dioleoyl monoamine, N,N′-dioleoyl tris(aminoethyl)amine]", "values": [{"measurement": "knockdown of VEGF protein", "setting": "[1]", "value": "~95", "unit": "%"}, {"measurement": "Cav-1 transcript knockdown, livers", "setting": "[2]", "value": 62, "unit": "%"}, {"measurement": "Cav-1 transcript knockdown, lungs", "setting": "[2]", "value": 76, "unit": "%"}, {"measurement": "decrease in VEGF transcript relative to the non-silencing control group", "setting": "[3]", "value": 32, "unit": "%"}, {"measurement": "improvement in median survival relative to non-silencing control or untreated groups", "setting": "[4]; VEGF siRNA intratumoral, 6 injections", "value": 13, "unit": "%"}, {"measurement": "decrease in tumor volume relative to non-silencing siRNA", "setting": "[4]; [6]", "value": 31, "unit": "%"}, {"measurement": "decrease in tumor volume relative to untreated control animals", "setting": "[4]; [6]", "value": 57, "unit": "%"}, {"measurement": "loaded siRNA released from alginate gel", "setting": "[5]; with 0.1 M EDTA, after 84 hours", "value": 100, "unit": "%"}, {"measurement": "loaded siRNA released from alginate gel", "setting": "[5]; without EDTA (water), by 84 hours", "value": "< 20", "unit": "%"}]}
